Test results as given in US20090176711A1, “INHIBITORS OF AMYLOID PRECURSOR PROTEIN PROCESSING” (priority 2008, published 2009).

What was measured:
[1] = tested on: cleavage of Substrate M by β-secretase; assay: Inhibition of cleavage of Substrate M by β-secretase by complementary and deletion peptides (Examples 1, 5, 6; assay format not stated); type: biochemical; conditions: various concentrations, Substrate M (FIG. 8)
Protocol: So far we have focused on c-Sub M peptide. Serial deletions were made from N-terminus or C-terminus of c-Sub M (FIG. 5), and we investigated effect of the deletions on the cleavage of Substrate M. The optimum peptide/substrate ratio for inhibition on the cleavage of substrate was determined by observing the inhibition percentage at various peptide/substrate ratios (FIG. 4). Subsequently, the inhibitory activity of the deletion peptides were tested at 10 inhibitor/substrate ratio and the concentration of the Substrate M was 50 μM. Deletion of the first two amino acids from the N-terminus had little effect on the activity and deletion of five amino acids from the C-terminus of c-Sub M had little effect on the inhibitory activity (FIG. 6). Further deleted peptides were tested for inhibitory activity on the cleavage of Substrate M (FIG. 7).
The above-mentioned peptides that have inhibitory activity were tested at various concentrations for their inhibitory activities on their mutant substrate Substrate M (FIG. 8).

[2] = tested on: APP processing in HEK293-APP cells; assay: APP inhibitor activity on HEK293-APP cells (βCTF Western blot); type: cell-based, human; conditions: γ-secretase inhibitor and cholesterol added
Protocol: In the neuronal cells of the brain, APP is processed by α-secretase or β-secretase. To investigate the effects of the inhibitors on the cell, a cell based assay system was developed as described in FIG. 10. C-terminal fragment of APP remaining on the cell membrane was detected by Western blot. The resulting C-terminal fragments, αCTF or βCTF are further processed by γ-secretase. However, if the cells are treated with the γ-secretase inhibitor, this processing is blocked. As a result, αCTF or βCTF accumulate in the cell. If β-secretase inhibitor or APP inhibitor is added, this processing is blocked and βCTF disappears.
In addition, γ-secretase inhibitor and cholesterol were added to the cells to increase βCTF level. Commercially available peptide-based β-secretase inhibitor was included as control (Lane 6, FIG. 11). To detect the N-terminal fragment of β-amyloid which is a product of APP processing, 6E10 antibody was employed. […] Recently, it has been reported that the commercially available peptide-based inhibitor had to be linked to an oligoarginine transporter peptide to have inhibitory activity against cells. Therefore, mimetic approach is adopted to produce cell permeable analogs. (Chang et al. J. Neurochemistry 2004; 89:1409-1416).
After confirming the ability of the oligo-arginine coupled APP inhibitors to enter the cells, the inhibitors were applied to HEK293-APP cells overexpressing APP to test their inhibitory activities on APP processing. […] This inhibitor started to show significant inhibitory activity beginning from 0.1 μM (lower panel).

[3] = target: T1, cleavage of Sub-ST6Ga11 by rhBACE1 (Rattus norvegicus, UniProt P13721); assay: HPLC analysis of the cleavage of Sub-ST6Ga11 by rhBACE1; type: biochemical, human; conditions: up to 10 inhibitor/substrate ratio, Sub-ST6Ga11 50 μM, 500 nM enzyme
T1 construct: 19 amino acid region (DYEALTL/QAKEFQMPKSQE) that contains the β-cleavage site for investigation was chosen; purchased A&Pep Co., Inc. (non-labelled peptides); R&D Systems (rhBACE1)
Text: One of the advantages of the APP inhibitor described in the present invention is that it is a peptide or a mimetic that bind to the β-secretase cleavage site of APP, thus not affecting other β-secretase substrates. To confirm the specificity of the inventive APP inhibitor, two different types of substrates were used, APP Sub M and ST6Ga11. Both substrates are cleaved by β-secretase under normal conditions and the effect of the inventive APP inhibitor on the substrate cleavage was monitored by HPLC (See the schematic diagram in FIG. 16.) To carry out these experiments, the concentration of β-secretase required for cleavage of both substrates was determined as shown in FIG. 17. For substantial cleavage of ST6Ga11 substrate, 420 nM of the enzyme was required. Therefore, 420 nM of β-secretase was used for the following experiment.
Various concentrations of HC peptide were preincubated with either Sub M (50 μM) or Sub-ST6Ga11 (50 μM, DYEALTLQAKEFQMPKSQE) peptide corresponding to the β-cleavage site of ST6Ga11 for 2 h at RT. The mixtures containing Sub M was treated with 50 nM of rhBACE1 and that containing Sub-ST6Ga11 was treated with 500 nM enzyme for 12 h at RT. Roughly 50% of each BACE1 substrate was cleaved in the absence of HC peptide. The cleavage products were separated on a C18 reversed-phase HPLC column as described above.

[4] = tested on: Substrate M (Sub M, SEVNLDAEFR; β-secretase cleavage site of APPsw); assay: Binding of biotin-labeled Substrate M to immobilized complementary (HC) peptides; conditions: substrate not specified
Protocol: Complementary peptides (0.2, 2, 20, and 200 μM) were dissolved in phosphate buffered saline (PBS) (pH 7.4) and fixed to microtiter wells for 5 hr at 37° C. The wells were blocked with blocking buffer (3% BSA/PBS) for 1 hr at 37° C. Either N-terminally biotinylated Substrate W or M (20 μM) in blocking buffer was added and incubated for overnight at 4° C. Streptavidin-horseradish peroxidase in blocking buffer was added to detect resulting bound substrates. The plate was incubated for 2 hr at room temperature (RT), followed by addition of 3,3′,5,5′-tetramethyl-benzidine (TMB) as substrate for horseradish peroxidase for color reaction.
(§1) Reacti-Bind™ maleic anhydride-activated polystyrene plate (Pierce, IL, USA) was coated with 50 μl of HC peptide (200 μM in distilled water) by chemical coupling for 3 h at room temperature (RT) and washed three times with phosphate buffered saline (PBS) containing 0.05% tween 20 (PBST). The plate was blocked with blocking buffer (0.5% gelatin in PBS) for 1 h at RT. After discarding blocking buffer, biotinylated BACE1 substrates (200 μM) in blocking buffer was applied on the plate and incubated for 2.5 h at RT. Each well was washed three times with PBST. The bound biotinylated BACE1 substrates were detected by incubation with streptavidin-horseradish peroxidase (Str-HRP, 125 mU/ml in blocking buffer) for 2 h at RT. Color reaction was carried out with 50 μl of 3,3′,5,5′-Tetramethylbenzidine Liquid Substrate (Sigma-Aldrich, MO, USA). After stopping the reaction by addition of an equal volume of 1 N HCl, absorbance at 450 nm was read in an automated ELISA reader (EL 312e, Bio-Tek Instruments, VT, USA). All assays were carried out in duplicate.

[5] = target: T2, Sub-ST6Ga11 (DYEALTLQAKEFQMPKSQE) (Rattus norvegicus, UniProt P13721); assay: Binding of bio-Sub-ST6Ga11 to immobilized HC peptide; conditions: HC peptide chemically coupled on microtiter plate
T2 construct: 19 amino acid region (DYEALTL/QAKEFQMPKSQE) that contains the β-cleavage site for investigation was chosen; purchased Peptron, Inc; host or cells: chemical synthesis
Protocol: as §1
It was investigated if HC peptide would show specificity for APP in terms of the inhibition of cleavage by BACE1. ST6Ga11 is also cleaved by BACE1. For this experiment, 19 amino acid region (DYEALTL/QAKEFQMPKSQE) that contains the β-cleavage site for investigation was chosen. The 19 amino acid peptide was designated as Sub-ST6Ga11. […]

EFCIQIHF [c-Sub M ΔN1C1]
concentration dependent inhibitory activity, activity group [1]: most active group
inhibitory activity on APP processing (βCTF) [2]: none of the inhibitors tested showed inhibitory activity
inhibition of cleavage of Sub-ST6Ga11 by rhBACE1 [3]: about 10%
absorbance in binding test [4]: high absorbance
binding of bio-Sub-ST6Ga11 [5]: also bound
